From ChEMBL document CHEMBL3044917, “Multicomponent one-pot synthesis of 2-naphthol derivatives and evaluation of their anticancer activity” (Med Chem Res, 2012) come the findings set out here.

SMILES strings stand for the structures. pIC50: −log10 of the molar value.

What all share (type): functional, cell-based
For assay [1], the system named is HepG2. The assay is described as follows: Cytotoxicity against Homo sapiens (human) HepG2 cells after 48 hr by MTT assay. The conditions noted are these: HepG2, 48 h. On the technique in general: Tetrazolium dyes change colour on reduction, which living cells bring about.
For assay [2], the system named is HeLa. The assay is described as follows: Cytotoxicity against Homo sapiens (human) HeLa cells after 48 hr by MTT assay.
Assay [3] concerns A549. The assay is described as follows: Cytotoxicity against Homo sapiens (human) A549 cells after 48 hr by MTT assay. The conditions noted are these: A549, 48 h.
A short description of assay [4]: Cytotoxicity against Homo sapiens (human) MDA231 cells after 48 hr by MTT assay. As to conditions: MDA-MB-231, 48 h.

One may read the pIC50 as −log10 of the IC50, conventionally taken in molar units. Higher therefore signals a small IC50. On to `C=CCC(c1ccc(Cl)cc1)c1c(O)ccc2ccccc12` (stereo unspecified), for which the negative logarithm of the IC50 (pIC50) in assay [1] was 5.13; in assay [2], 5.19; in assay [3], 5.02; in assay [4], 5.12.

As for `C=CCC(c1cccc(F)c1)c1c(O)ccc2ccccc12` (stereo unspecified), the pIC50 in assay [1] was 5.19; in assay [2], 5.06; in assay [3], 5.07; in assay [4], 5.04.

For `C=CCC(c1ccc(F)cc1)c1c(O)ccc2ccccc12` (stereo unspecified), the pIC50 was 5.92 in assay [1], above 6.00 in assay [2], 5.80 in assay [3] and above 6.00 in assay [4].

For `C=CCC(c1ccccc1F)c1c(O)ccc2ccccc12` (stereo unspecified), the pIC50 in assay [1] is 5.01; in assay [2], 5.17; in assay [3], 5.11; in assay [4], 5.18.

In the case of `C=CCC(c1ccccc1)c1c(O)ccc2ccccc12` (stereo unspecified), the pIC50 in assay [1] was 4.28; in assay [2] it was 4.12; in assay [3] it was 4.23; in assay [4] it was 4.48.

`COc1cccc2c1C(=O)c1c(O)c3c(c(O)c1C2=O)C[C@@](O)(C(=O)CO)C[C@@H]3O[C@H]1C[C@H](N)[C@H](O)[C@H](C)O1` [DOXORUBICIN]: the pIC50 in assay [2], in assay [3] and in assay [4] was above 6.00 each time.

As to `C=CCC(c1ccc(C)cc1)c1c(O)ccc2ccccc12` (stereo unspecified), the pIC50 in assay [1] was 5.25; in assay [2], 5.21; in assay [3], 5.17; in assay [4], 5.22.

On to `C=CCC(c1ccc(C(C)C)cc1)c1c(O)ccc2ccccc12` (stereo unspecified), for which the pIC50 is 4.82 in assay [1], 4.90 in assay [2], 4.87 in assay [3] and 4.78 in assay [4].
